From patent US20120157356A1, “Hydraulic fracturing with slick water from dry blends” (priority 2010, published 2012)

Assays:
[1] = Flowability: drainage time through a wide-mouth funnel; conditions: dry powder flowability
Excerpt: Also, the powder must be flowable (low angle of repose), with the flow measured as the drainage time through a wide-mouth funnel.

Rats = conditions: no unit in table, b36: normally expressed as mg per kilogram of body mass; cited from earlier work
[2] = Apparent density by volume increase of a dispersion of known weight of solid in mineral oil; type: physicochemical
Excerpt: If batch mix operations (illustrated in FIG. 1) are used so that time of mixing is not critical, particle size of the components used in the blend can be as large as 18 mesh (1.0 mm). However, if the mixing is to be based on a continuous mix process (FIG. 2), timing becomes more critical, requiring that the polymeric components disperse and begin hydration prior to reaching the well head. In this case, the particle size of the components preferably is 40 mesh (0.420 mm) or smaller, but more preferably 80 mesh (0.177 mm) or smaller. Also, it is preferred that the particle size and the apparent density of all the components be about the same (to minimize segregation during shipping and storage). Apparent densities of selected commercial components, as measured by measuring volume increase of a dispersion of a known weight of solid in mineral oil, are shown in Table 2. A dry blend preferably will be formed of components for each function in a fracturing fluid having apparent densities and particle sizes matched to the best extent possible. Inert solids, such as fumed silica, may be combined with active ingredients to form solid particles having a preferred density.

SMILES	Time in Minutes (drainage time through a wide-mouth funnel) [1] [min]	Acute Oral Effect LD50 Rats (Rats)	Apparent Density [2] [g/mL]
N.N.O=S(=O)(O)OOS(=O)(=O)O [Ammonium Persulfate]	0.2		
C[N+](C)(C)CCO.[Cl-] [Choline Chloride]		3,400	
CN1CSC(=S)N(C)C1 [Dazomet 99%]			1.111
CN1CSC(=S)N(C)C1 [Dazomet, tetrahydro-3,5-dimethyl-2H-1,3,5-thiadiazine-2-thione]		519	
Cc1cc(O)cc(C)c1Cl [PCMX]		3,830	
[Cl-].[K+] [Potassium Chloride]	0.05		
O=S([O-])O.[Na+] [Sodium Bisulfite]		1,131	
O=C1O[C@H]([C@H](O)CO)C([O-])=C1O.[Na+] [Sodium Erythorbate]		5,000	
O=S([O-])([O-])=S.[Na+].[Na+] [Sodium Thiosulfate]		2,890	1.667
C[N+](C)(C)C.[Cl-] [Tetramethylammonium Chloride]		94	
